Results: US10391111B2, “Composition for preventing or treating cervical cancer including gypenoside LXXV” (INTELLIGENT SYNTHETIC BIOLOGY CENTER, priority 2015, dated 2019)
“Also recorded” adds a separate entry of the source. Where two headings read alike, the source gives them in different places.

Tested on: HeLa cells
Assay: MTT assay of HeLa cell viability (cytotoxic / anti-proliferative effect)
Assay type: cell-based
Settings: for inhibition of HeLa cells: 50 μM; for effect on cell division: HeLa cells, 2.5 μM to 100 μM; for CC50: read-out: LC50 values against HeLa cells
Experimental: HeLa cells were cultured in DMEM (Dulbecco's Modified Eagle's Medium) containing 10% FBS, 2 mmol/L of glutamine, 100 U/mL penicillin, and […] of streptomycin at 37° C. under 5% CO2 condition. An appropriate amount of GypLXXV in DMSO (dimethyl sulfoxide) was taken according to a final concentration as described and added to the culture medium.
In vitro chemosensitivity was measured by MTT (dimethyl thiazolyl-2,5-diphenyltetrazolium bromide) assay (CellTiter 96® Non-Radioactive Cell Proliferation Assay kit. Promega), 100 μl of HeLa cells were dispensed at a density of 10^4 cells per well in a 96-well plate, and incubated for 24 hrs. To measure anti-proliferative effects of GypLXXV. Rg3(S). Rb1 and GypXVII, 2.5 μM to 100 μM of the compound was diluted with a FBS-free medium, and added to each well. Thereafter, the cells treated with the compound were incubated at 37° C. for 48 hrs, and MTT was added to each well, followed by further incubation for 4 hrs. After aspiration of the culture medium, formazan formed from MTT was dissolved in 100 μl of solubilization/stop solution. Thereafter, optical density of each well was measured at a wavelength of 595 nm using a microplate reader. Results were expressed as LC50 values analyzed using a GraphPad Prism 5 program.

| Compound | inhibition of HeLa cells (48 hrs) | anti-cancer / anti-proliferative effect compared with the other compounds (FIG. 2) (HeLa cell viability, 48 hrs) | effect on cell division | CC50 (Homo sapiens, HeLa, 48 h) [µM] | CC50 (MTT assay, 48 hrs incubation, 2.5 μM to 100 μM compound, FBS-free medium) [µM] |
| --- | --- | --- | --- | --- | --- |
| CC(C)=CCC[C@](C)(O[C@@H]1O[C@H](CO[C@@H]2O[C@H](CO)[C@@H](O)[C@H](O)[C@H]2O)[C@@H](O)[C@H](O)[C@H]1O)[C@H]1CC[C@]2(C)[C@@H]1[C@H](O)C[C@@H]1[C@@]3(C)CC[C@H](O)C(C)(C)[C@@H]3CC[C@]12C [GypLXXV, gypenoside LXXV] | almost all HeLa cells were inhibited | anti-proliferative activity similar to that of Rg3(S); also recorded: higher anti-cancer effects than those of Rb1 or GypXVII | decreased cell division in a dose-dependent manner | 29.9 |  |
| CC(C)=CCC[C@](C)(O)[C@H]1CC[C@]2(C)[C@@H]1[C@H](O)C[C@@H]1[C@@]3(C)CC[C@H](O[C@@H]4O[C@H](CO)[C@@H](O)[C@H](O)[C@H]4O[C@@H]4O[C@H](CO)[C@@H](O)[C@H](O)[C@H]4O)C(C)(C)[C@@H]3CC[C@]12C [Rg3(S), 20(S)-ginsenoside-Rg3, reference compound] | almost all HeLa cells were inhibited |  | decreased cell division in a dose-dependent manner |  | 23.5 |
